Measurements published in the NIST ThermoML archive (doi:10.1016/j.jct.2016.02.007).
Numbers after ± are expanded uncertainties.

Assay: wn = mass fraction of the nth substance listed
Conditions: 101.3 kPa, Liquid, Vibrating tube method

CN(C)CCCO [3-dimethylamino-1-propanol] + O
mass density [kg/m3]
Conditions | w1 = 0.1 | w1 = 0.2 | w1 = 0.3 | w1 = 0.4 | w1 = 0.5 | w1 = 0.6 | w1 = 0.7 | w1 = 0.8 | w1 = 0.9 | w1 = 1
293.15 K | 992.9 ± 4.9 | 989.7 ± 4.8 | 986.6 ± 5 | 981.7 ± 5 | 975.1 ± 5.2 | 962.4 ± 5.5 | 948.3 ± 5.7 | 933.1 ± 6.1 | 910.9 ± 6.7 | 886.7 ± 4.8
298.15 K | 991.5 ± 4.9 | 987.7 ± 4.9 | 983.9 ± 4.9 | 978.3 ± 5 | 971.4 ± 5.2 | 958.5 ± 5.5 | 944.3 ± 5.7 | 929.2 ± 6.1 | 907.1 ± 6.7 | 883 ± 4.8
303.15 K | 989.8 ± 4.9 | 985.5 ± 4.9 | 980.9 ± 5 | 974.9 ± 5 | 967.6 ± 5.2 | 954.6 ± 5.6 | 940.2 ± 5.7 | 925.2 ± 6.1 | 903.2 ± 6.7 | 879.1 ± 4.8
308.15 K | 987.9 ± 5 | 983.1 ± 4.9 | 978 ± 5 | 971.4 ± 5 | 963.8 ± 5.3 | 950.6 ± 5.6 | 936.1 ± 5.7 | 921.2 ± 6.1 | 899.2 ± 6.7 | 875.1 ± 4.8
313.15 K | 985.9 ± 5 | 980.4 ± 5 | 974.8 ± 5 | 967.8 ± 5.1 | 959.9 ± 5.3 | 946.5 ± 5.6 | 932 ± 5.7 | 917.1 ± 6.1 | 895.2 ± 6.7 | 871.2 ± 4.8
318.15 K | 983.6 ± 5 | 977.3 ± 5 | 971.6 ± 5 | 964.2 ± 5.1 | 956 ± 5.3 | 942.4 ± 5.6 | 927.8 ± 5.7 | 912.9 ± 6.1 | 891.1 ± 6.7 | 867.2 ± 4.8
323.15 K | 981.2 ± 5 | 975 ± 5 | 968.2 ± 5.1 | 960.4 ± 5.1 | 952.1 ± 5.3 | 938.2 ± 5.6 | 923.6 ± 5.7 | 908.7 ± 6.1 | 887 ± 6.7 | 863.1 ± 4.8
328.15 K | 978.6 ± 5 | 972 ± 5 | 964.7 ± 5.1 | 956.7 ± 5.1 | 948 ± 5.3 | 934 ± 5.6 | 919.3 ± 5.7 | 904.5 ± 6.1 | 882.9 ± 6.6 | 859.1 ± 4.8
333.15 K | 975.9 ± 5.1 | 968.9 ± 5.1 | 961 ± 5.1 | 952.8 ± 5.1 | 943.9 ± 5.4 | 929.7 ± 5.6 | 915 ± 5.7 | 900.2 ± 6.1 | 878.7 ± 6.6 | 855 ± 4.8
338.15 K | 973.1 ± 5.1 | 965.8 ± 5.1 | 957.9 ± 5.1 | 948.9 ± 5.2 | 939.8 ± 5.4 | 925.4 ± 5.7 | 910.6 ± 5.7 | 895.8 ± 6 | 874.4 ± 6.6 | 850.8 ± 4.8
343.15 K | 970.1 ± 5.1 | 962.5 ± 5.2 | 954.2 ± 5.1 | 944.9 ± 5.2 | 935.6 ± 5.4 | 921 ± 5.7 | 906.2 ± 5.6 | 891.4 ± 5.9 | 870.1 ± 6.6 | 846.7 ± 4.8
